Results as given in patent publication US12589107B2, “Composition containing nicotinamide mononucleotide and mogroside, and application thereof” (Beijing Hebabiz Biotechnology Co., Inc., priority 2019, dated 2026).

How the values were obtained:
[1] = system: alloxan-damaged RINm5f cells; assay: MTT cell viability assay, protection against alloxan-induced islet β-cell damage (with Calcusyn combination index); format: cell-based, rat; details: for combination index CI value with alloxan: agent 0.5, 1, 5, 10 mM with alloxan 15 mM, Calcusyn, >1.0 = antagonistic (cytoprotective); for cell survival rate of alloxan-damaged pancreatic β-cells, single agent: alloxan 15 mM, agent 0.5, 1, 5, 10 mM, pretreated 1 h, 24 h, significant vs AXN group at 5 mM (P<0.05) and 10 mM (P<0.01)
Procedure: RINm5F cells were cultured to the logarithmic growth phase, inoculated in 96-well culture plates at a cell density of 5×10^4/ml, cultured for 24 hours, and then drugs were added. The experiment was divided into a negative control group, an alloxan damage group (AXN group) and a protection group. Both the AXN group and the protection group were added with alloxan at a final concentration of 15 mM, and the protection group was added with different concentrations of GX999 and GX008A, pretreated for 1h. The experiment set up 4 duplicate wells and the experiment was repeated three times.
RINm5F cells were cultured to the logarithmic growth phase, inoculated in 96-well culture plates at a cell density of 5×10^4/ml, cultured for 24 hours, and then drugs were added. The experiment was divided into a negative control group, an alloxan damage group (AXN group) and a protection group. Both the AXN group and the protection group were added with alloxan at a final concentration of 15 mM, and the protection group was added with different concentrations of GX999 and GX008A, pretreated for 1h. The experiment set up 4 duplicate wells and they were placed in a carbon dioxide incubator for regular culture for 24 hours. MTT 20 ul (5 mg/mL) was added to each well and incubated for 4 hours. Then the culture medium was discarded, 150 ul DMSO was added to each well and shaken for 10 minutes, and the OD value of the optical density was detected at 490 nm with a microplate reader.
According to the inhibition rates of different concentrations of drugs alone and in combination, the Calcusyn software was used to analyze and process data such as the inhibition rates of GX999 and GX008A alone at different concentrations and the inhibition rates in combination at corresponding concentrations to obtain the combination index (CI) value. According to the definition of combination index, the synergistic effect of drugs was judged, and the synergistic effect is indicated by less than 1.0, and the antagonistic effect is indicated by greater than 1.0.
The experiment set up a negative control group and a damage group with different concentrations of alloxan (concentrations of 4 mM, 7 mM, 10 mM, 15 mM, 20 mM), after 24 hours of exposure, then 4 duplicate wells were set up, and the MTT method was used to detect the cell survival rate. […] Compared with the blank control group, the P value was less than 0.01, and the difference was statistically significant.

[2] = system: 3T3L1 preadipocytes; assay: MTT cell viability assay, proliferation of 3T3L1 preadipocytes (with Calcusyn combination index); format: cell-based; details: 48 hours; for survival rate of 3T3L1 cells / cell proliferation, single agent: GX999 10-60 mM, GX008A 5-200 mM, P<0.01 vs blank control
Procedure: 3T3L1 cells were placed in DMEM high-glucose medium containing 10% calf serum and cultured at 37° C. and 5% CO2. When the cells reached 90% confluence, they were digested with 0.25% trypsin, passaged, and inoculated in a 96-well cell culture plate.
The logarithmic growth phase cells were taken and inoculated in a 96-well plate at a density of 5×10^3 cells/mL, with 4 replicate wells in each group. After the cells grew to about 40%-50% confluence, the fresh drug-containing medium was replaced with and they were divided into a GX999 alone group, a GX008A group, and a GX999+GX008A combination group. After culturing for 48h, MTT 20 ul (5 mg/mL) was added to each well and incubated for 4h. Then the culture medium was discarded, 150 ul DMSO was added to each well and shaken for 10 minutes, and the OD value of the optical density was detected at 490 nm with a microplate reader, and the cell survival rate was calculated according to the formula. Analysis of drug synergy:
Combination method: 10 mM GX999 in combination with GX008A (0, 5, 10, 30, 50 mM) group. According to the inhibition rates of different concentrations of drugs alone and in combination, the Calcusyn software was used to analyze and process data such as the inhibition rates of GX999 and GX008A alone at different concentrations and the inhibition rates in combination at corresponding concentrations to obtain the combination index (CI) value. According to the definition of combination index, the synergistic effect of drugs was judged, and the synergistic effect is indicated by less than 1.0, and the antagonistic effect is indicated by greater than 1.0.

[3] = system: 3T3-L1 preadipocytes; assay: Induced differentiation of 3T3-L1 preadipocytes, Oil Red O staining of lipid droplets; format: cell-based; details: 10 mM each, 8 days of induced differentiation, P<0.01
Procedure: 2 days after the 3T3-L1 preadipocytes grew to complete confluence, the induction of differentiation began. That is, the DMEM complete medium was discarded, and replaced with DMEM complete medium containing 5 ug/ml insulin, 0.5 mM IBMX, 1 uM dexamethasone, and after 2 days, it was replaced with DMEM complete culture medium containing 5 ug/ml insulin and cultured for 2 days. Then DMEM complete culture medium was used to continue culturing for 2 days. From the first day of differentiation, the experimental group was given a culture medium containing 10 mM GX999 or 10 mM GX008A to intervene in the whole process of cell differentiation, and the control group was added with conventional inducers.
After 8 days of induced differentiation, the cells were fixed with 4% paraformaldehyde for 30 minutes, washed 3 times with balanced salt solution (PBS), incubated with oil red O staining solution for 60 minutes, the pipetted liquid was rinsed 3 times with PBS, and observed for the formation of lipid droplets under an inverted microscope and a video was taken. Isopropanol (200 ul per well) was added, and the absorbance at A490 nm was measured with a microplate reader after 5 minutes.
Based on the results of the above-mentioned combination application experiment, the drug concentration and combination concentration were selected. […]

NC(=O)c1ccc[n+]([C@@H]2O[C@H](COP(=O)([O-])O)[C@@H](O)[C@H]2O)c1 [GX999, Nicotinamide mononucleotide]
combination index CI value with alloxan [1]: greater than 1.0 | cell survival rate of alloxan-damaged pancreatic β-cells, single agent [1]: the cell survival rate could be significantly improved | IC50 ([2]; 3T3L1 cells, MTT, read-out: IC50 (3T3L1 cell survival rate)): 51.7 ± 1.5 mM | survival rate of 3T3L1 cells / cell proliferation, single agent [2]: inhibited cell proliferation in a concentration-dependent manner | lipid droplet content in cells compared with the differentiation group [3]: significantly reduced

O=C1NC(=O)C(=O)C(=O)N1 [alloxan, reference compound]
cell survival rate / cell proliferation (alloxan cell damage model) ([1]; alloxan 4, 7, 10, 15, 20 mM, 24 hours, RINm5f cells, MTT): inhibited cell proliferation in a concentration-dependent manner

C[C@H](CC[C@@H](O[C@@H]1O[C@H](CO[C@@H]2O[C@H](CO)[C@@H](O)[C@H](O)[C@H]2O)[C@@H](O)[C@H](O)[C@H]1O[C@@H]1O[C@H](CO)[C@@H](O)[C@H](O)[C@H]1O)C(C)(C)O)[C@H]1CC[C@@]2(C)[C@@H]3CC=C4[C@@H](CC[C@H](O[C@@H]5O[C@H](CO[C@@H]6O[C@H](CO)[C@@H](O)[C@H](O)[C@H]6O)[C@@H](O)[C@H](O)[C@H]5O)C4(C)C)[C@]3(C)[C@H](O)C[C@]12C [GX008A, Mogroside V]
combination index CI value with alloxan [1]: greater than 1.0 | cell survival rate of alloxan-damaged pancreatic β-cells, single agent [1]: the cell survival rate could be significantly improved | survival rate of 3T3L1 cells / cell proliferation, single agent [2]: inhibited cell proliferation in a concentration-dependent manner | lipid droplet content in cells compared with the differentiation group [3]: significantly reduced
